One data set concerns CaV3. The following applies: cited from earlier work. From the text:
(§1) It is well documented that the three CaV3 subtypes participate differentially in a variety of physiological and pathological conditions. Selective pharmacological inhibition is therefore important for dissecting the pathophysiological functions of CaV3 channel subtypes and for the development of therapeutically useful subtype-selective inhibitors.

Another data set relates to patients. The following applies: used clinically as anti-epileptic drugs; cited from earlier work.
From the text: as §1

A further data set deals with T1, CaV3.2 (Homo sapiens, UniProt O95180).
T1 construct: expressed in transfected cells; host or cells: HEK-293
Description: Whole-cell voltage-clamp of CaV3.2 expressed in HEK-293 cells. Type of data set: cell-based. As to the method:
(§2) Human embryonic kidney (HEK) 293 cells were grown in Dulbecco’s modified Eagle’s medium (DMEM) containing 5% fetal bovine serum and penicillin/streptomycin at 37 °C in a 5% CO2 incubator. Cells were transiently transfected with 3 μg plasmid DNA using the calcium-phosphate method. Plasmids of Cav3.1, Cav3.2 or Cav3.3 were separately transfected into three individual plates of HEK-293 cells. After transfection, cells were incubated at 37 °C for 48 h prior to whole-cell voltage-clamp recordings.
(§3) Patch pipettes with a tip resistance of 2.8~3.5 MΩ were pulled from borosilicate glass capillary tubes (Warner Instruments, Holliston, MA, USA) using a P-97 Flaming-Brown type micropipette puller (Sutter Instrument, Novato, CA, USA). Ionic currents were recorded using an Axon Multiclamp 700B microelectrode amplifier (Molecular Devices, San Jose, CA, USA). The sampling frequency for acquisition was 50 kHz and data were low-pass filtered at 2 kHz. Voltage and current commands and digitisation of membrane voltages and currents were controlled using a Digidata 1440A interfaced with Clampex 10.4 (Molecular Devices, San Jose, CA, USA). Data were analysed using pCLAMP10.4 software (Molecular Devices, San Jose, CA, USA).
(§4) To measure CaV3 currents, cells were incubated with the following bath solution (in mM): 145 TEA-Cl, 5 CaCl2, 3 CsCl, 1 MgCl2, 5 glucose, and 10 HEPES, adjusted to pH 7.4 with TEA-OH, osmolarity ~300 mOsm. The pipette solution was as follows (in mM): 130 CsCl, 20 HEPES, 10 EGTA, 5 MgCl2, 3 Mg-ATP, and 0.3 Tris-GTP, adjusted to pH 7.3 with CsOH, osmolarity ~310 mOsm. All recordings were performed at room temperature (21–24 °C). For Cav3.1- or Cav3.2-transfected cells, their membrane potentials were initially held at −90 mV for 20 ms and then depolarized to −30 mV for 150 ms. […] The peak values of Cav3 currents were recorded before and after addition of venom fractions or synthetic peptide. […] The inhibition was calculated by dividing the toxin-reduced peak amplitudes by the peak amplitudes before additions of the toxin.

The nature of data set [1]: Solubility limit in electrophysiology. The following applies: synthetic ω-Avsp1a; working concentration could not be increased above 25 μM. Type of data set: physicochemical.
In the next data set the target is T2, CaV3.3 (Homo sapiens, UniProt Q9P0X4).
T2 construct: expressed in transfected cells; host or cells: HEK-293
The experiment in a line: Whole-cell voltage-clamp of CaV3.3 expressed in HEK-293 cells. Type of data set: cell-based. How it is done:
as §2, §3, §4

The next data set has as its target T3, CaV3.1 (Homo sapiens, UniProt O43497).
T3 construct: expressed in transfected cells; host or cells: HEK-293
The experiment in a line: Whole-cell voltage-clamp of CaV3.1 expressed in HEK-293 cells. Type of data set: cell-based. How it is done:
as §2, §3, §4

The mark [2] stands for this setting: synthetic ω-Avsp1a, 10, 5, 1, and 0.1 μM, Hill equation fit, HEK-293.

Where a SMILES comes first, the peptide text is derived from it. Bridges are numbered along the chain shown (N, C = ends).

T3 sequence (O43497 whole entry): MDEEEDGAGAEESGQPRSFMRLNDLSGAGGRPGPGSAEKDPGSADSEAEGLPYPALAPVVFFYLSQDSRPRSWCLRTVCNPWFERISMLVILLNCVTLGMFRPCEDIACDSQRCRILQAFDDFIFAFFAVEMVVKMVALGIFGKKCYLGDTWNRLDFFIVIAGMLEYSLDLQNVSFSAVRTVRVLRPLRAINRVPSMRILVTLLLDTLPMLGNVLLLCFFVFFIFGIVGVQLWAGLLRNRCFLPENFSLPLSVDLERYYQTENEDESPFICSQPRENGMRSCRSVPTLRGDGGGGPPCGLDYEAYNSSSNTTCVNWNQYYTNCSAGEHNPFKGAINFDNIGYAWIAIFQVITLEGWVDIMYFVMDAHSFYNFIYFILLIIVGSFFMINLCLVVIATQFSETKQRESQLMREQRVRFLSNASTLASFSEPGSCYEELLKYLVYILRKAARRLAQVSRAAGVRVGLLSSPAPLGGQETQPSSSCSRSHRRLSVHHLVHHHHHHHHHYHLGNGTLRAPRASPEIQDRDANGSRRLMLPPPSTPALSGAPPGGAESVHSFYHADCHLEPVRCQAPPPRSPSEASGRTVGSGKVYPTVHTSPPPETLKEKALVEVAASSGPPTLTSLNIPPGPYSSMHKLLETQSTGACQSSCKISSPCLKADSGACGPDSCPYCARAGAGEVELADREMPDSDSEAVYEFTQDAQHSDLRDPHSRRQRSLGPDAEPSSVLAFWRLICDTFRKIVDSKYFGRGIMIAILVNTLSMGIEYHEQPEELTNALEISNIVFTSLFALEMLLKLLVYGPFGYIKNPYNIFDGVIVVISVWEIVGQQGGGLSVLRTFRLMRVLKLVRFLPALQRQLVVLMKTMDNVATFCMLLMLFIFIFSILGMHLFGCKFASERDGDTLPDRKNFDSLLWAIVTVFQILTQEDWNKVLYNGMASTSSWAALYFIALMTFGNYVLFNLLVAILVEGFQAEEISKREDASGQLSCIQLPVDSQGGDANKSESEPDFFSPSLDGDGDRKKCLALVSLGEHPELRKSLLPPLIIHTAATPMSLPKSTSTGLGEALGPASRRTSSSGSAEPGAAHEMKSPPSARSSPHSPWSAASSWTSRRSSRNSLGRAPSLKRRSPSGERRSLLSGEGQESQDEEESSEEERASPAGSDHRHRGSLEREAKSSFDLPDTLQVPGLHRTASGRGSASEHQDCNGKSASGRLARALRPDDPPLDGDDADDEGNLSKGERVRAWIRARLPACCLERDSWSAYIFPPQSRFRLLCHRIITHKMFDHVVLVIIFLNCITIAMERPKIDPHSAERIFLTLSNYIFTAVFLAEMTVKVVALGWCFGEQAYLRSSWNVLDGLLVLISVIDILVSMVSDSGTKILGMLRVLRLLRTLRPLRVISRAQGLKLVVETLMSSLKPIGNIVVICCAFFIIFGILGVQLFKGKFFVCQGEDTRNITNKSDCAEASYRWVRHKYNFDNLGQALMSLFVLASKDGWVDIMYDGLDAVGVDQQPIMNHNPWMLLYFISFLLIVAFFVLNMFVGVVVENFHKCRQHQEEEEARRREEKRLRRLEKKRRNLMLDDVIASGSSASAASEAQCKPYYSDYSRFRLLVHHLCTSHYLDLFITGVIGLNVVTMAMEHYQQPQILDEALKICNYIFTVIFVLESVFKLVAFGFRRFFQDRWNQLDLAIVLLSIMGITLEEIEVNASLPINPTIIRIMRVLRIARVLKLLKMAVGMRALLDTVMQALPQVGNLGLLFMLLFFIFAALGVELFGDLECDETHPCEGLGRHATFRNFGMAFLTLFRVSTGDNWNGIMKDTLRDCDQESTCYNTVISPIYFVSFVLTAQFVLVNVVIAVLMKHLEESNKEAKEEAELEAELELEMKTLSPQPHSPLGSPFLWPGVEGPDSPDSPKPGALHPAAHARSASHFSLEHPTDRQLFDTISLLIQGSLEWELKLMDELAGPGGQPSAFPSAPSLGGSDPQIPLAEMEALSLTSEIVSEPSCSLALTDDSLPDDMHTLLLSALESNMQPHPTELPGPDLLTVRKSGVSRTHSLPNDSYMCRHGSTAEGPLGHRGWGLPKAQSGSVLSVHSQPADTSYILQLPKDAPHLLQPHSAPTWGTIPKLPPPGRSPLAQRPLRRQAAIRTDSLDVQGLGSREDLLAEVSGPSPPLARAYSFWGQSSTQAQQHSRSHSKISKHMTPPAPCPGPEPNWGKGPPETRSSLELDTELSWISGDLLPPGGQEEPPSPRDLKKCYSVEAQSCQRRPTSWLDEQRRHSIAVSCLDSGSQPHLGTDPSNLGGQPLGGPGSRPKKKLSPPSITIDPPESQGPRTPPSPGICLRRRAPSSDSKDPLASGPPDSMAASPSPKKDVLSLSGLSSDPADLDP
T1 sequence (O95180 whole entry): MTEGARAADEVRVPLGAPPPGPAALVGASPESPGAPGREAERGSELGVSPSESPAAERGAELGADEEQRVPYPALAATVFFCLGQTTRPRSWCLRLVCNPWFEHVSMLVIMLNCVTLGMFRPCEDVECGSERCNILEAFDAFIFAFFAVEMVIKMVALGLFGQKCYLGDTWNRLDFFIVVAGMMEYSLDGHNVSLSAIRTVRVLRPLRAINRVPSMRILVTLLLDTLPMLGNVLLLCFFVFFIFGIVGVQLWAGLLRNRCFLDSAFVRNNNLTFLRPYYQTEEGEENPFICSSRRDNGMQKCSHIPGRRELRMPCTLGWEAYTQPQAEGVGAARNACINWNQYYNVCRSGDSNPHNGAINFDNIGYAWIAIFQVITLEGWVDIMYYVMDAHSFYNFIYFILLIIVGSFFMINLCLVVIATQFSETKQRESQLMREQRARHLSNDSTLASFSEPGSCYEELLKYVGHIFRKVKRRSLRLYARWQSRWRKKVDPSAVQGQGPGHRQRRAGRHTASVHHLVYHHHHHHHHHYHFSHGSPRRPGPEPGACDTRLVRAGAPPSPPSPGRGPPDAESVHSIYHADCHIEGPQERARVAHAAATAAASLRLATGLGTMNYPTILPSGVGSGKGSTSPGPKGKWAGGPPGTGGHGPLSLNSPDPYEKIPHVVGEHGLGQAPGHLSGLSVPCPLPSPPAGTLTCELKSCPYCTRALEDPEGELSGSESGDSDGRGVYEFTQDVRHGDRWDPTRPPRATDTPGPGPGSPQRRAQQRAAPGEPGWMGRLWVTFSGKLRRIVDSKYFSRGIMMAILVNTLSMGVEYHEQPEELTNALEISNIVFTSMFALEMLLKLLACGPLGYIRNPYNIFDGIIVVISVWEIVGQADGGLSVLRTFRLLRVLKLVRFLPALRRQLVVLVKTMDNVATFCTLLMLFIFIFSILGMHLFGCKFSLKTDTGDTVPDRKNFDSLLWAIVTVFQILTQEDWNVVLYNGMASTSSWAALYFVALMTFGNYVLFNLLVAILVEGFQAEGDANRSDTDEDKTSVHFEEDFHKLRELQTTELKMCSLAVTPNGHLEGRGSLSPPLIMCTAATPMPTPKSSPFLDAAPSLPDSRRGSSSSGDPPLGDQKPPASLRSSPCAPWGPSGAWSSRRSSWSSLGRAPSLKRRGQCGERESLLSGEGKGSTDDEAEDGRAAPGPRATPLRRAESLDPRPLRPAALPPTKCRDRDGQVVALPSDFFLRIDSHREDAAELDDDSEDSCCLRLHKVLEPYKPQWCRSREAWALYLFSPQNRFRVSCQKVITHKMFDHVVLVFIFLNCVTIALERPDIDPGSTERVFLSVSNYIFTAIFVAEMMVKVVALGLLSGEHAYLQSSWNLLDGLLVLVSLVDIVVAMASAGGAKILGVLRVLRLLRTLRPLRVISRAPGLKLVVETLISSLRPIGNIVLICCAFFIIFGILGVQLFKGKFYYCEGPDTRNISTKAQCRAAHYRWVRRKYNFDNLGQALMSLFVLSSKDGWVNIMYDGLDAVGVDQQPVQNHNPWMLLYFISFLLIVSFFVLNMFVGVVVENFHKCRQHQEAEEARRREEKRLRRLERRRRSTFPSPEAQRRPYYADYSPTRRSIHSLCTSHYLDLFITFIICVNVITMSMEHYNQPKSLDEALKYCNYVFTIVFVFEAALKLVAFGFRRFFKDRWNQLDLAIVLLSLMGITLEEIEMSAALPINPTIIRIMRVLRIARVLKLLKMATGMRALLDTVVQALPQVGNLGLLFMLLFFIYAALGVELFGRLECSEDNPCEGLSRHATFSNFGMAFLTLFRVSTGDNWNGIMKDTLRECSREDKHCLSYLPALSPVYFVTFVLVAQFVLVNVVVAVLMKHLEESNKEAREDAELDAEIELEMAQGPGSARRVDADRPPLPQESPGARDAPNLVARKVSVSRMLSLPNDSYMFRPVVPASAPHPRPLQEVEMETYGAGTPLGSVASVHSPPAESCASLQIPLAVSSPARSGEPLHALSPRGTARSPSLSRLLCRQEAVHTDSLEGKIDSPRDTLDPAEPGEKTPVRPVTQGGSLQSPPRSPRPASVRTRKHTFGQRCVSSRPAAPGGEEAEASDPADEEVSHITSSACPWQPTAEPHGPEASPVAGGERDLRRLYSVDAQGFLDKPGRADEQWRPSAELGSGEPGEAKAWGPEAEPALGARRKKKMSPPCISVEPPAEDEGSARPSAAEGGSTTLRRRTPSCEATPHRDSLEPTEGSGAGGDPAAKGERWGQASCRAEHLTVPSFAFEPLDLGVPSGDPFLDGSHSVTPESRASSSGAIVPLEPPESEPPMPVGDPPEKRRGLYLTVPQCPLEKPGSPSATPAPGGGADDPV

With `NS(=O)(=O)Cc1noc2ccccc12` [zonisamide], in the data set on CaV3, the CaV3 subtype specificity entry was “not subtype-specific”. In the data set with patients, the “clinical effectiveness as anti-epileptic” value is given as “not effective in all patients”.
Take `CCC1(C)CC(=O)NC1=O` (centres unmarked) [ethosuximide]: the CaV3 subtype specificity entry with CaV3 is recorded as “not subtype-specific”. Moreover, in the data set on patients, the “clinical effectiveness as anti-epileptic” value is reported as “not effective in all patients”.
A word on the IC50: it is the midpoint of a concentration-inhibition curve. A low value points to inhibition by little substance. In general, inhibition refers to the share of the control response that was lost under treatment. For the compound `CC(C)C[C@@H]1NC(=O)[C@H](Cc2ccccc2)NC(=O)[C@H](CCCCN)NC(=O)[C@H](Cc2c[nH]cn2)NC(=O)[C@@H](NC(=O)[C@H](CC(=O)O)NC(=O)CN)CSSC[C@@H]2NC(=O)[C@@H]3CSSC[C@@H](C(=O)N[C@H](C(=O)N[C@@H](Cc4c[nH]c5ccccc45)C(=O)N[C@@H](CC(=O)O)C(=O)N[C@@H](Cc4c[nH]c5ccccc45)C(=O)N[C@H](C(=O)N[C@H](C(N)=O)C(C)C)[C@@H](C)O)C(C)C)NC(=O)[C@H](Cc4c[nH]c5ccccc45)NC(=O)CNC(=O)[C@H](Cc4c[nH]cn4)NC(=O)[C@H](CCCCN)NC(=O)[C@H](CCCNC(=N)N)NC(=O)[C@H](CO)NC(=O)[C@H](CSSC[C@H](NC(=O)[C@H](Cc4c[nH]c5ccccc45)NC(=O)CNC1=O)C(=O)N[C@@H](CCCNC(=N)N)C(=O)NCC(=O)N[C@@H](CCC(=O)O)C(=O)N1CCC[C@H]1C(=O)N[C@@H](CC(=O)O)C(=O)N1CCC[C@H]1C(=O)N3)NC(=O)[C@H](CO)NC(=O)[C@H](CC(C)C)NC(=O)[C@H](Cc1c[nH]cn1)NC(=O)[C@H](CCC(=O)O)NC2=O` [ω-Avsp1a, ω-theraphotoxin-Avsp1a] (H-GDCHKFLGWCRGEPDPCCEHLSCSRKHGWCVWDWTV-NH2; disulfide 3-18, 10-23, 17-30), the IC50 was above 25 µM against CaV3.2, 4.32 ± 1.21 µM at CaV3.3 (setting [2]) and 5.06 ± 0.16 µM against CaV3.1 (setting [2]). Besides, the inhibition at 4.1 µM turned out to be 25% at CaV3.2 (HEK293, pH 7.4, native ω-Avsp1a, 4.1 μM, HEK-293, whole-cell, -90 to -30 mV, room temperature (21–24 °C), pH 7.4, 5 mM CaCl2, n = 5, p < 0.001 vs. Cav3.1 and Cav3.3, read-out: current inhibition); 90% on CaV3.3 (HEK293, pH 7.4, native ω-Avsp1a, 4.1 μM, HEK-293, whole-cell, -90 to -20 mV, room temperature (21–24 °C), pH 7.4, 5 mM CaCl2, n = 3, read-out: current inhibition); 90% at CaV3.1 (HEK293, pH 7.4, native ω-Avsp1a, 4.1 μM, HEK-293, whole-cell, -90 to -30 mV, room temperature (21–24 °C), pH 7.4, 5 mM CaCl2, n = 5, read-out: current inhibition). Besides, at CaV3.2 (HEK293, synthetic ω-Avsp1a, 25 μM (section 3.6), read-out: current inhibition), the inhibition at 25 µM was 31%. In addition, in data set [1], the solubility result is “limited solubility”. Besides, the inhibition at 10 µM at CaV3.3 (HEK293, synthetic ω-Avsp1a, 10 μM, HEK-293, whole-cell, -90 to -20 mV, n = 9, read-out: current inhibition) came to 90%; on CaV3.1 (HEK293, synthetic ω-Avsp1a, 10 μM, HEK-293, whole-cell, -90 to -30 mV, n = 9, read-out: current inhibition), 90%.
